Measurements taken from the Kinase Knowledgebase extract (Sharma et al. 2016).

Target: CDK2 (UniProt P24941)
Experiment: Enzyme Assay
Details: for inhibition: concentration not given here

O=C1CCCCn2cc(c3cccnc32)C2=C(C(=O)NC2=O)c2cn(c3ncccc23)CCCC1
Ki: 1230 nM
inhibition: 50%

O=C1NC(=O)C2=C1c1cn(c3ncccc13)CCCC1=CC=C(CCCn3cc2c2cccnc23)S1
inhibition: 20%

O=C1NC(=O)C2=C1c1cn(c3ncccc13)CCCCC(O)CCCCn1cc2c2cccnc21
Ki: 682 nM
inhibition: 57%
